Active and inactive are the calls of the source. The rule behind the calls is not given here.
Key:
[1] = test system: Mus musculus; assay: Anti-inflammatory activity in DSS-induced ulcerative colitis male C57BL/6 mouse model assessed as reduction in disease activity index (DAI) score at 60 mg/kg administered via gavage for 10 days; type: functional, organism-based; conditions: time 10.0 day
[2] = molecular target: T1, Myeloblastin (Mus musculus) (UniProt Q61096); assay: In vivo inhibition of proteinase 3 in C57BL/6 mouse assessed as reduction in proteinase 3 activity in blood administered orally once daily for 6 days by fluorescence based microplate reader; type: functional, organism-based; conditions: dose 5-30 mg/kg, route po, time 6.0 day
T1 sequence (whole entry): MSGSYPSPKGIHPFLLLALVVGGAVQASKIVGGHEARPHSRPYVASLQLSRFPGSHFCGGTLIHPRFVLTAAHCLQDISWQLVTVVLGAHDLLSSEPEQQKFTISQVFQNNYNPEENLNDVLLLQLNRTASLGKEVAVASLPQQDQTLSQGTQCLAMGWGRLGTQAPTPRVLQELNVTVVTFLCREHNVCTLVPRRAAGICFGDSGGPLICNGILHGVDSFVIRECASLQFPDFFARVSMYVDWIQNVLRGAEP

[3] = molecular target: T2, Dipeptidyl peptidase 1 (Mus musculus) (UniProt P97821); assay: In vivo inhibition of Cathepsin C in C57BL/6 mouse assessed as reduction in cathepsin C activity in blood at 15 mg/kg, po administered once daily for 6 days by fluorescence based microplate reader relative to control; type: functional, organism-based; conditions: time 6.0 day
T2 sequence (whole entry): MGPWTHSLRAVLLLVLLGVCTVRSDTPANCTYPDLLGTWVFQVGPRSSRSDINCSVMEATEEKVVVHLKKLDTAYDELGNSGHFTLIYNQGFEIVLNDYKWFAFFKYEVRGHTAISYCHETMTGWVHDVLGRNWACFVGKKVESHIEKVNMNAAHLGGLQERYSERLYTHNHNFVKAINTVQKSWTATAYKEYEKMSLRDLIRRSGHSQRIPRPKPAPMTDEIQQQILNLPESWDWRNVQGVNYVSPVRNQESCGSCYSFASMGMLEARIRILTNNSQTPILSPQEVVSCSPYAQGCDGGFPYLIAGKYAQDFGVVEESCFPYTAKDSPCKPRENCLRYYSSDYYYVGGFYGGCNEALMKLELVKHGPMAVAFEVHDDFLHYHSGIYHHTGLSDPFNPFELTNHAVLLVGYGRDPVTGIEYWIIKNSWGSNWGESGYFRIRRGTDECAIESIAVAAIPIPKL

[4] = Acute toxicity in ICR mouse assessed as kidney pathological change at 1500 mg/kg, po administered daily for 7 days by H and E staining based analysis; type: organism-based; conditions: in vivo, 168 h, time 7 day
[5] = molecular target: T3, Neutrophil elastase (Mus musculus) (UniProt Q3UP87); assay: Induction of neutrophil elastase degradation in C57BL/6 mouse bone marrow cells assessed as residual activity at 10 uM incubated for 48 hrs by Western blot analysis relative to control; type: cell-based; conditions: Bone marrow cell
T3 sequence (whole entry): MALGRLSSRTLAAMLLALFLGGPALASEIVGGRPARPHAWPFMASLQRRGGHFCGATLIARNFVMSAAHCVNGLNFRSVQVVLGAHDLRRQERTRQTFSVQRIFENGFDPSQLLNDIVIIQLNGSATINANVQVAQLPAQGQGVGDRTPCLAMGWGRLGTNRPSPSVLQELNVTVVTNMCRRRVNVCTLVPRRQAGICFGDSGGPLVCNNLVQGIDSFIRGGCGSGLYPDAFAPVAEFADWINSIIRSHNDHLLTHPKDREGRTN

[6] = Cmax in male Sprague-Dawley rat at 2 mg/kg, iv measured at 5 to 1440 mins by LC-MS/MS analysis; type: ADME, organism-based; conditions: in vivo, time 5-1440 min
[7] = test system: Mus musculus; assay: Anti-inflammatory activity in DSS-induced ulcerative colitis male C57BL/6 mouse model assessed as reduction in Cathepsin C level in serum at 15 to 30 mg/kg administered via gavage for 10 days; type: functional, organism-based; conditions: dose 15-30 mg/kg, time 10.0 day
[8] = test system: RAW264.7; assay: Anti-inflammatory activity in LPS-stimulated mouse RAW264.7 cells assessed as reduction in GM-CSF production incubated for 24 hrs by ELISA; type: functional, cell-based; conditions: dose 0.62-5 µM
[9] = molecular target: T2, Dipeptidyl peptidase 1 (Mus musculus); assay: In vivo inhibition of Cathepsin C in C57BL/6 mouse assessed as reduction in cathepsin C activity in blood at 30 mg/kg, po administered once daily for 6 days by fluorescence based microplate reader relative to control; type: functional, organism-based; conditions: time 6.0 day
[10] = test system: Mus musculus; assay: Anti-inflammatory activity in DSS-induced ulcerative colitis male C57BL/6 mouse model assessed as reduction in proteinase 3 level in colon at 60 mg/kg administered via gavage for 10 days relative to control; type: functional; parameters: scale not given: the % may be the effect or the level left; conditions: time 10 day
[11] = Half life in male Sprague-Dawley rat at 2 mg/kg, iv measured at 5 to 1440 mins by LC-MS/MS analysis; type: ADME, organism-based; conditions: in vivo, time 5-1440 min
[12] = molecular target: T1, Myeloblastin (Mus musculus); assay: In vivo inhibition of proteinase 3 in C57BL/6 mouse assessed as reduction in proteinase 3 activity in blood at 30 mg/kg, po administered once daily for 6 days by fluorescence based microplate reader relative to control; type: functional, organism-based; conditions: time 6.0 day
[13] = test system: Mus musculus; assay: Anti-inflammatory activity in DSS-induced ulcerative colitis male C57BL/6 mouse model assessed as reduction in IL-6 expression in colon administered via gavage for 10 days by ELISA; type: functional, organism-based; conditions: dose 15-60 mg/kg, time 10.0 day
[14] = test system: Mus musculus; assay: Anti-inflammatory activity in DSS-induced ulcerative colitis male C57BL/6 mouse model assessed as reduction in proteinase 3 level in colon at 15 to 30 mg/kg administered via gavage for 10 days; type: functional, organism-based; conditions: dose 15-30 mg/kg, time 10.0 day
[15] = Acute toxicity in ICR mouse assessed as change in white blood cell count in blood at 1500 mg/kg, po administered daily for 7 days; type: organism-based; conditions: in vivo, 168 h, time 7 day
[16] = Apparent permeability in human Caco-2 cells incubated for 90 min by LC-MS/MS analysis; type: ADME, cell-based
[17] = test system: Mus musculus; assay: Anti-inflammatory activity in DSS-induced ulcerative colitis male C57BL/6 mouse model assessed as reduction in Cathepsin G level in colon at 60 mg/kg administered via gavage for 10 days relative to control; type: functional; parameters: scale not given: the % may be the effect or the level left; conditions: time 10 day
[18] = test system: Mus musculus; assay: Anti-inflammatory activity in DSS-induced ulcerative colitis male C57BL/6 mouse model assessed as reduction in GM-CSF expression in colon administered via gavage for 10 days by ELISA; type: functional, organism-based; conditions: dose 15-60 mg/kg, time 10.0 day
[19] = test system: Mus musculus; assay: Anti-inflammatory activity in DSS-induced ulcerative colitis male C57BL/6 mouse model assessed as reduction in Cathepsin C level in serum at 60 mg/kg administered via gavage for 10 days relative to control; type: functional; parameters: scale not given: the % may be the effect or the level left; conditions: time 10 day
[20] = molecular target: T4, Neutrophil elastase (Homo sapiens) (UniProt P08246); assay: Inhibition of neutrophil elastase in human U-937 cells using N-MeSuc-Ala-Pro-Val-pNA as substrate at 10 uM incubated for 5 days by […] based microplate reader analysis relative to control; type: cell-based; conditions: time 5.0 day
T4 sequence (whole entry): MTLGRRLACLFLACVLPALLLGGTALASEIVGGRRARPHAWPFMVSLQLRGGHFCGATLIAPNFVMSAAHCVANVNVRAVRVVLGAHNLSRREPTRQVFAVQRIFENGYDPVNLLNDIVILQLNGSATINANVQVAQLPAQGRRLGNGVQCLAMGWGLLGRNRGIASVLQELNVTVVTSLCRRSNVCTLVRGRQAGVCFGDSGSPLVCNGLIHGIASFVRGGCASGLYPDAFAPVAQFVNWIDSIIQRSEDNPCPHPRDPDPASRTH

O=C1Nc2c(cccc2-c2ccc(NC3CCOCC3)cc2)/C1=C/c1ccnc2ccccc12
Activity [1]: Active
inhibition [2]: Dose-dependent-effect
inhibition [3]: < 50%
Activity [4]: Non-toxic
Activity [5]: 6.65%
Cmax [6]: 309 ng/mL
Activity [7]: inactive
Activity [8]: Dose-dependent-effect
inhibition [9]: 27.2%
Activity [10]: 47%
t1/2 [11]: 2.26 h
inhibition [12]: 44.8%
Activity [13]: Dose-dependent-effect; Significant Reduction Observed In High Dose Group
Activity [14]: inactive
Activity [15]: Non-toxic
Papp at 1.5 h [16]: 3.2 ×10⁻⁶ cm/s
Activity [17]: 51%
Activity [18]: Dose-dependent-effect; Significant Reduction Observed In High Dose Group
Activity [19]: 37%
inhibition [20]: 24.5%
